These results are taken from patent US6133039A, “In vivo method for determination of oxidative stress” (Washinton University, priority 2000, dated 2000).

The nature of series [1]: Metabolic fate of radiolabeled dityrosine injected intravenously into mice (blood, tissue and urine radioactivity). The format is in vivo. As for the experimental part:
Mice were injected with 2×10^5 cpm of [^14 C]dityrosine. FIG. 3A: Blood was collected at the indicated times by retro-orbital bleeding. FIG. 3B: Animals were sacrificed at the indicated times after injection of [^14 C]dityrosine. Recovery of radiolabeled material in tissues and urine was quantified by scintillation spectroscopy.
(§1) o,o'-[^14 C]Dityrosine (2×10^5 cpm) was injected into the animals intravenously. Plasma was centrifuged (400×g for 20 min at 4° C.) from blood collected by retro-orbital bleeding. Tissue samples were collected from animals killed by cervical dislocation, weighed and then homogenized in deionized water. Radioactivity in tissue homogenates, plasma, and urine was determined by liquid scintillation spectroscopy (Beckman LS 3801) with correction for quenching. [^14 C]Dityrosine was prepared from L-[^14 C]tyrosine (American Radiolabeled Chemicals Co.; St. Louis, Mo.) and o,o'-[^13 C12 ]dityrosine was prepared from L-[^13 C6 ]tyrosine (Cambridge Isotope Inc.; Andover, Mass.) using horseradish peroxidase (Boehringer Mannheim Biochemicals; Indianapolis, Ind.) and H2 O2 (Fisher Scientific Co.; Pittsburgh, Pa.) and isolated by reverse-phase HPLC; (27). o,o'-[^14 C]Dityrosine and radiolabeled material in urine were analyzed by HPLC (27) using a reverse-phase column (ODS ultrasphere, 250 mm×4.6 mm, particle size 5 μm.; Beckman,) and a flow rate of 1 ml/min. The column was equilibrated with 100% solvent A (1% acetic acid in water). Compounds were eluted with a discontinuous gradient of solvent B (1% acetic acid in methanol). The gradient was 0%-10% solvent B over 10 min, 10% solvent B for 4 min, 10%-100% solvent B over 5 min and 100% solvent B for 10 min. Prior to HPLC analysis, urinary amino acids were isolated by solid-phase extraction as outlined above. Recovery of radiolabeled material from urine subjected to this procedure was>90%. Radioactivity in each HPLC fraction was quantified by liquid scintillation spectroscopy.

In series [2] the test system is peritoneal phagocytes of wild-type mice. The experiment in a line: Protein-bound o,o'-dityrosine in peritoneal leukocytes activated in vivo with zymosan, isotope dilution GC/MS. On the set-up: species or system mice (C57BL/6J). As to the method:
(§2) Thioglycolate-elicited peritoneal inflammatory cells were activated in vivo with zymosan. FIG. 2A: At the indicated time (n=3 animals) or FIG. 2B: 3 h after injection of zymosan, protein-bound o,o'-dityrosine in cellular proteins was quantified by isotope dilution GC/MS.
(§3) The animal studies committee of Washington University School of Medicine in St. Louis approved all protocols. The C57BL/6J mice used for these experiments were obtained from Jackson Laboratories (Bar Harbor, […].) and bred and maintained under pathogen-free conditions. Impaired O2^.cndot.- by phorbol ester-stimulated neutrophils isolated from CGD mice deficient in gp91 phox (13) was confirmed by monitoring the superoxide dimutase inhibitable reduction of ferricytochrome c (10). Mice were fed rodent diet 5001 (Harlan-Teklad, Madison, Wis.). Between ages 9 and 11 weeks, the mice were injected with one ml of 4% thioglycollate to recruit leukocytes into the peritoneum. The leukocytes were activated 20 hours (h) later by intraperitoneal injection of zymosan (250 mg/kg). Control animals were injected with one ml of buffer A (138 mM NaCl, 3 mM KCl, 0.1 M sodium phosphate, pH 7.4). Prior to and every 2 h during urine collection, the animals were injected intraperitoneally with 2 ml of buffer A.
Animals were killed by decapitation after metophane-induced anesthesia. After the abdominal wall was washed with 95% ethanol, leukocytes were harvested from the peritoneum using a siliconized glass pipette. The peritoneum was lavaged 3 times with 4 ml of ice-cold Hanks' Balanced Salt Solution (HBSS) containing 100 μM DTPA. Cells were suspended in ice-cold HBSS, collected by low speed centrifugation, and stored at -80° C. until analysis. […]
(§4) Amino acids were converted to their n-propyl esters, heptafluorobutyryl derivatives and quantified by isotope dilution gas chromatography/mass spectrometry (GC/MS) with selected ion monitoring (20,21). […] The ions monitored were: L-tyrosine, m/z 417 and 595; L-[^13 C6 ]tyrosine, m/z 423 and 601; o,o'-dityrosine, m/z 1030 and 1208; o,o'-[^13 C12 ]dityrosine, m/z 1042 and 1220.

Series [3] relates to peritoneal phagocytes of CGD mice. The experiment in a line: Protein-bound o,o'-dityrosine in peritoneal phagocytes, isotope dilution GC/MS, CGD mice. The format is in vivo. The settings on record: 3 hours of zymosan stimulation, mice deficient in NADPH oxidase. As to the method:
as §2
as §3, with “The leukocytes were activated 20 hours (h) later by intraperitoneal injection of zymosan (250 mg/kg). Control animals were injected with one ml of buffer A (138 mM NaCl, 3 mM KCl, 0.1 M sodium phosphate, pH 7.4). Prior to and every 2 h during urine collection, the animals were injected intraperitoneally with 2 ml of buffer A.” left out
as §4

Another series deals with peritoneal phagocytes. The experiment in a line: Recruitment of peritoneal cells by thioglycollate. The format is in vivo, mice.
Excerpt: as §3
Animals were killed by decapitation after metophane-induced anesthesia. After the abdominal wall was washed with 95% ethanol, leukocytes were harvested from the peritoneum using a siliconized glass pipette. The peritoneum was lavaged 3 times with 4 ml of ice-cold Hanks' Balanced Salt Solution (HBSS) containing 100 μM DTPA. Cells were suspended in ice-cold HBSS, collected by low speed centrifugation, and stored at -80° C. until analysis.
To determine whether white blood cells oxidatively damage proteins in vivo, isotope dilution GC/MS was used to quantify levels of o,o'-dityrosine in mouse peritoneal phagocytes. To recruit neutrophils into the peritoneum, the animals were injected with thioglycollate, a chemical irritant. Twenty hours after this first injection, the animals were given an intraperitoneal injection of zymosan, which stimulates phagocytes to produce H2 O2 and secrete myeloperoxidase into the phagolysosome (6). Thioglycollate-injected mice typically yielded 20-40×10^6 peritoneal cells. Neutrophils, mononuclear cells, and eosinophils represented 67±4%, 30±4%, and<1% of the harvested phagocytes (n=6 animals).

Series [4] is described as follows: Reverse-phase HPLC analysis of urine of animals injected intravenously with o,o'-[^14 C]dityrosine. The format is in vivo, mice. The settings on record: urine after intravenous injection. As to the method:
Urine collected from animals injected with [^14 C]dityrosine was subjected to reverse-phase HPLC analysis with monitoring of radioactivity by scintillation spectroscopy.
as §1, with “Compounds were eluted with a discontinuous gradient of solvent B (1% acetic acid in methanol). The gradient was 0%-10% solvent B over 10 min, 10% solvent B for 4 min, 10%-100% solvent B over 5 min and 100% solvent B for 10 min. Prior to HPLC analysis, urinary amino acids were isolated by solid-phase extraction as outlined above. Recovery of radiolabeled material from urine subjected to this procedure was>90%.” left out

For series [5] the following is noted: 3-nitrotyrosine given to animals; Tabrizi-Fard et al.; cited from earlier work.

As for `NC(Cc1ccc(O)c(-c2cc(CC(N)C(=O)O)ccc2O)c1)C(=O)O` (centres unmarked) [o,o'-dityrosine], the “recovery of radioactive material in the urine (in words)” value in series [1] (between 3 h and 4 h after intravenous injection) was “recovered almost quantitatively”. In series [2] (before zymosan), the “o,o'-dityrosine content of resident thioglycollate-elicited neutrophils” value is ~ 50 μmol per mol tyrosine.

Take zymosan: the “o,o'-dityrosine in phagocyte proteins” value in series [3] was “undetectable”. Besides, the “increase in protein-bound dityrosine” value in series [3] (p<0.0005) was “completely abrogated”. Also, the “time of peak of protein-bound o,o'-dityrosine” value in series [2] (after zymosan injection) is 3 h. In addition, the “increase of o,o'-dityrosine in cellular proteins” value in series [2] (neutrophils exposed to zymosan in vivo) is 4 fold.

With thioglycollate, in the series with peritoneal phagocytes (n=6 animals), the “eosinophils among harvested phagocytes” value is given as less than 1%, the “mononuclear cells among harvested phagocytes” value is listed as 30±4% and the “neutrophils among harvested phagocytes” value amounted to 67±4%. Moreover, in the series with peritoneal phagocytes (thioglycollate-injected mice), the peritoneal cells yielded is listed as 20-40 ×10^6 peritoneal cells.

For `N[C@@H](Cc1ccc(O)c(-c2cc(C[C@H](N)C(=O)O)ccc2O)c1)C(=O)O` [o,o'-[^14 C]dityrosine], the “radioactivity in urine co-migrating with authentic o,o'-[^14 C]dityrosine” value in series [4] is on record as “More than 80%”. In series [1] (5 min after intravenous injection), the “radiolabeled material lost from the blood” value was “more than 50%”. Further, the “radioactivity recovered in the urine” value in series [1] (1 h after intravenous injection) is listed as “Thirty”. Moreover, the “radioactivity recovered in the urine” value in series [1] (3 h after intravenous injection) was determined as 65%. Besides, in series [1] (4 h after intravenous injection), the “radioactivity recovered in the urine” value turned out to be 81%. Moreover, in series [1] (after intravenous injection), the “radiolabeled material in blood, liver, spleen, and heart” value is given as “essentially undetectable”; the “radiolabeled material present in kidney” value was less than 5%. For the same molecule, in series [1] (intravenous), the “apparent half-life in the blood (slower phase)” value is ~ 30 min and the “clearance kinetics from the blood” value is “biphasic kinetics”.

On to `N[C@@H](Cc1ccc(O)c([N+](=O)[O-])c1)C(=O)O` [3-nitrotyrosine], for which the “amount excreted into urine” value in series [5] is recorded as “Minimal amounts”.
